Columns and labels:
[1] = target: T1, HCV NS3/4A protease complex, J4L6S strain (1b genotype) (Hepatitis C virus genotype 1b, UniProt O92972, C1454S/C1711G); test: FRET peptide assay to monitor HCV NS3/4A proteolytic activity (J4L6S strain); type: biochemical; conditions: read-out: IC50 against NS3/4A J4L6S strain
T1 construct: DNA encoding the recombinant HCV NS3/4A protease complex (amino acids 1027 to 1711) for these strains; made in house; host or cells: Escherichia coli BL21 (DE3), pET21b
Excerpt: HCV NS3 protease complexes, derived from the BMS strain, H77 strain or J4L6S strain, were generated, as described below. These purified recombinant proteins were generated for use in a homogeneous assay (see below) to provide an indication of how effective compounds of the present disclosure would be in inhibiting HCV NS3 proteolytic activity.
Serum from an HCV-infected patient was obtained from Dr. T. Wright, San Francisco Hospital. An engineered full-length cDNA (compliment deoxyribonucleic acid) template of the HCV genome (BMS strain) was constructed from DNA fragments obtained by reverse transcription-PCR(RT-PCR) of serum RNA (ribonucleic acid) and using primers selected on the basis of homology between other genotype la strains. From the determination of the entire genome sequence, a genotype la was assigned to the HCV isolate according to the classification of Simmonds et al. (See P Simmonds, K A Rose, S Graham, S W Chan, F McOmish, B C Dow, E A Follett, P L Yap and H Marsden, J. Clin. Microbiol., 31(6), 1493-1503 (1993)). […]

[2] = target: T2, human neutrophil elastase (HNE) (Homo sapiens, UniProt P08246); test: Specificity assay, neutrophil elastase; type: biochemical; conditions: read-out: HLE activity in the specificity assays
T2 construct: purchased Sigma, EMDbiosciences
T2 sequence (P08246 30-267): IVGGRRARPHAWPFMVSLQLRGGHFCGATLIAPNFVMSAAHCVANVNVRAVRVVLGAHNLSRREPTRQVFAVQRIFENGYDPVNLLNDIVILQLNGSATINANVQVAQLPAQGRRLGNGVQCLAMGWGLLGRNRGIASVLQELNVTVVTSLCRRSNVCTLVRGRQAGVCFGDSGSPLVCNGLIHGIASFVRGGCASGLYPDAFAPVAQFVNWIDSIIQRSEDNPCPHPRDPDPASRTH
Procedure: The specificities of compounds of the present disclosure were determined against a variety of serine proteases: human neutrophil elastase (HNE), porcine pancreatic elastase (PPE) and human pancreatic chymotrypsin and one cysteine protease: human liver cathepsin B. In all cases a 96-well plate format protocol using a fluorometric Amino-Methyl-Coumarin (AMC) substrate specific for each enzyme was used as described previously (PCT Patent Application No. WO 00/09543) with some modifications to the serine protease assays. All enzymes were purchased from Sigma, EMDbiosciences while the substrates were from Bachem, Sigma and EMDbiosciences.
Compound concentrations varied from 100 to 0.4 μM depending on their potency. The enzyme assays were each initiated by addition of substrate to enzyme-inhibitor pre-incubated for 10 min at room temperature and hydrolysis to 15% conversion as measured on cytofluor.
50 mM Tris-HCl, pH 8.0, 50 mM NaCl, 0.1 mM EDTA, 3% DMSO, 0.02% Tween-20, 5 μM succ-AAPV-AMC and 20 nM HNE or 8 nM PPE;
The percentage of inhibition was calculated using the formula: [1−((UVinh−UVblank)/(UVctl−UVblank))]×100
A non-linear curve fit was applied to the inhibition-concentration data, and the 50% effective concentration (IC50) was calculated by the use of Excel XLfit software.

T1 sequence (O92972 1027-1711 C1454S/C1711G, one chain of several): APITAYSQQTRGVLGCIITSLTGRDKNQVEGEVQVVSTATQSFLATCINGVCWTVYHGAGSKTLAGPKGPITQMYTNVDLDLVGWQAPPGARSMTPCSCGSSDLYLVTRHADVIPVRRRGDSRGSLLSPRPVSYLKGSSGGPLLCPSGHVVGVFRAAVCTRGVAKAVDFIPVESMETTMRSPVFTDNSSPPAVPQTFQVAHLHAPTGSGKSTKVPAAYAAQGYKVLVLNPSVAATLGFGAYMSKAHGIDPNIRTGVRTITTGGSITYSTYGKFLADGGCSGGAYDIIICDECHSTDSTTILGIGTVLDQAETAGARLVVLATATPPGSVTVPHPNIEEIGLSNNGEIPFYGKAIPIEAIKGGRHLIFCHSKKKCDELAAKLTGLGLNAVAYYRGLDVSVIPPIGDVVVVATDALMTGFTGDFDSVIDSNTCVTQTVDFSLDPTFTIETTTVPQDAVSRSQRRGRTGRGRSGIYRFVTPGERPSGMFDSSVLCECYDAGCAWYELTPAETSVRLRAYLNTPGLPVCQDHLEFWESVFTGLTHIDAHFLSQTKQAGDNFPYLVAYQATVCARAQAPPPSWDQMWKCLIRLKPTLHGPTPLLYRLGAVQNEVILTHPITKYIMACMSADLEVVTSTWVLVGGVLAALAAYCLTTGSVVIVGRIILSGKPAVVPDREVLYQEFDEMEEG

C=C[C@@H]1C[C@]1(NC(=O)[C@@H]1C[C@@](O)(c2ccc(-c3ccccc3)cc2)CN1C(=O)[C@@H](NC(=O)OC(C)(C)C)C(C)(C)C)C(=O)NS(=O)(=O)C1CC1 [Compound 3]
IC50 [1]: 0.0011 µM
IC50 [2]: 82 µM
